Source: US8445510B2, “Fused bicyclic kinase inhibitors” (OSI Pharmaceuticals, LLC, priority 2011, dated 2013)

What was measured:
Karpas-299 cells = test: Karpas-299 cell proliferation assay (CellTiter-Glo); format: cell-based; details: Homo sapiens, 72 h; Karpas-299 cell line (NPM-ALK); 3 days incubation; at least duplicate experiments; read-out: Prolif. IC50
RON = molecular target: T1, RON (Homo sapiens, UniProt Q04912); test: sfRON cell mechanistic assay (HeLa), phosphorylated RON ELISA; format: cell-based; details: HeLa cells transfected with sfRON; inhibition of phosphorylated RON; four hours incubation; at least duplicate experiments; read-out: sfRON mech IC50
T1 sequence (Q04912 913-1400): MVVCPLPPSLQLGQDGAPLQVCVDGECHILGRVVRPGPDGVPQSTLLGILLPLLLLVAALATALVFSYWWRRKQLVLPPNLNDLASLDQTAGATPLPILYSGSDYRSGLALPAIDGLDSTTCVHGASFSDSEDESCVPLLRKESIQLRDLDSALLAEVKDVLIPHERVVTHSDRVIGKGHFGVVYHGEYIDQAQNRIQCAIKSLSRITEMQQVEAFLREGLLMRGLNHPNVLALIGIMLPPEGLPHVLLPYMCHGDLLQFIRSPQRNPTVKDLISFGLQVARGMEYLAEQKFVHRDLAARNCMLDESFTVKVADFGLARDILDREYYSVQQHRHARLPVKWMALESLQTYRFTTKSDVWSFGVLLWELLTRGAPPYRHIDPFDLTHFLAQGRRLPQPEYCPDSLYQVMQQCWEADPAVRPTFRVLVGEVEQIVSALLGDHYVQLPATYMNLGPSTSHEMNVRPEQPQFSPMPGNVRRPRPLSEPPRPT
Method in brief: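 HeLa cells transiently transfected with sfRON plasmid, then exposed 4 h at 37 °C to a 6-point compound series (typically 10 μM to 3 nM, 0.5% DMSO). Phospho-RON (pY1238/1239) in lysates measured by sandwich ELISA with luminescence. IC50 from 4-parameter fit of percent-of-DMSO-control data, at least duplicate runs.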

| SMILES | IC50 (Karpas-299 cells) | IC50 (RON) |
| --- | --- | --- |
| CCc1c(-c2cnc3[nH]cc([C@H](C)c4c(OC(F)F)ccc(F)c4Cl)c3c2)cnn1CC(C)(C)O [Example 72, 1-[4-(3-{(1S)-1-[2-Chloro-6-(difluoromethoxy)-3-fluorophenyl]ethyl}-1H-pyrrolo[2,3-b]pyridin-5-yl)-5-ethyl-1H-pyrazol-1-yl]-2-methylpropan-2-ol] | 50 to 200 nM | 200 to 1000 nM |
| Cc1nn(C[C@@H](O)CO)c(C)c1-c1cnc2[nH]cc([C@H](C)c3c(OC(F)F)ccc(F)c3Cl)c2c1 [Example 69, (2R)-3-[4-(3-{(1S)-1-[2-Chloro-6-(difluoromethoxy)-3-fluorophenyl]ethyl}-1H-pyrrolo[2,3-b]pyridin-5-yl)-3,5-dimethyl-1H-pyrazol-1-yl]propane-1,2-diol] | ≤ 50 nM | ≤ 200 nM |
| COc1ccc(F)c(Cl)c1[C@@H](C)c1c[nH]c2ncc(-c3c[nH]nc3C)cc12 [Example 1, 3-[(1S)-1-(2-Chloro-3-fluoro-6-methoxyphenyl)ethyl]-5-(3-methyl-1H-pyrazol-4-yl)-1H-pyrrolo[2,3-b]pyridine] | 50 to 200 nM | 200 to 1000 nM |
| COc1ccc(F)c(Cl)c1[C@@H](C)c1c[nH]c2ncc(-c3cn(CC(C)(C)O)nc3C)cc12 [Example 7, 1-(4-{3-[(1S)-1-(2-Chloro-3-fluoro-6-methoxyphenyl)ethyl]-1H-pyrrolo[2,3-b]pyridin-5-yl}-3-methyl-1H-pyrazol-1-yl)-2-methylpropan-2-ol] | 50 to 200 nM | 200 to 1000 nM |
| CNC(=O)[C@H]1CC[C@H](n2cc(-c3cnc4[nH]cc([C@H](C)c5c(OC)ccc(F)c5Cl)c4c3)c(C)n2)CC1 [Example 22, trans-4-(4-{3-[(1S)-1-(2-Chloro-3-fluoro-6-methoxyphenyl)ethyl]-1H-pyrrolo[2,3-b]pyridin-5-yl}-3-methyl-1H-pyrazol-1-yl)-N-methylcyclohexanecarboxamide] | ≤ 50 nM | ≤ 200 nM |
| COc1ccc(F)c(Cl)c1[C@@H](C)c1c[nH]c2ncc(-c3cn([C@@H]4C[C@@H](O)[C@@H](O)C4)nc3C)cc12 [Example 32, (1R,2S,4S)-4-(4-{3-[(1S)-1-(2-Chloro-3-fluoro-6-methoxyphenyl)ethyl]-1H-pyrrolo[2,3-b]pyridin-5-yl}-3-methyl-1H-pyrazol-1-yl)cyclopentane-1,2-diol] | ≤ 50 nM | ≤ 200 nM |
| COc1ccc(F)c(Cl)c1[C@@H](C)c1c[nH]c2ncc(-c3cn(C)nc3C#N)cc12 [Example 46, 4-{3-[(1S)-1-(2-Chloro-3-fluoro-6-methoxyphenyl)ethyl]-1H-pyrrolo[2,3-b]pyridin-5-yl}-1-methyl-1H-pyrazole-3-carbonitrile] | 200 to 1000 nM | > 1000 nM |
| CCc1nn(CC(C)(C)O)cc1-c1cnc2[nH]cc([C@H](C)c3c(OC(F)F)ccc(F)c3Cl)c2c1 [Example 73, 1-[4-(3-{(1S)-1-[2-Chloro-6-(difluoromethoxy)-3-fluorophenyl]ethyl}-1H-pyrrolo[2,3-b]pyridin-5-yl)-3-ethyl-1H-pyrazol-1-yl]-2-methylpropan-2-ol] | 50 to 200 nM | 200 to 1000 nM |
| COc1ccc(F)c(Cl)c1[C@@H](C)c1c[nH]c2ncc(-c3cn(C)nc3C)cc12 [Example 2, 3-[(1S)-1-(2-Chloro-3-fluoro-6-methoxyphenyl)ethyl]-5-(1,3-dimethyl-1H-pyrazol-4-yl)-1H-pyrrolo[2,3-b]pyridine] | 50 to 200 nM | 200 to 1000 nM |
| [2H][C@@](C)(c1c(OC)ccc(F)c1Cl)c1c[nH]c2ncc(-c3cnn([C@H]4CC[C@H](O)CC4)c3C)cc12 [Example 110, trans-4-(4-{3-[(1S)-1-(2-Chloro-3-fluoro-6-methoxyphenyl)(1-^2H)ethyl]-1H-pyrrolo[2,3-b]pyridin-5-yl}-5-methyl-1H-pyrazol-1-yl)cyclohexanol] | ≤ 50 nM | 200 to 1000 nM |
| Cc1c(-c2cnc3[nH]cc([C@H](C)c4c(OC(F)F)ccc(F)c4Cl)c3c2)cnn1C1CCNCC1 [Example 96, 3-{(1S)-1-[2-Chloro-6-(difluoromethoxy)-3-fluorophenyl]ethyl}-5-[5-methyl-1-(piperidin-4-yl)-1H-pyrazol-4-yl]-1H-pyrrolo[2,3-b]pyridine] | ≤ 50 nM | ≤ 200 nM |
| COc1cc(OC)c(Cl)c([C@@H](C)c2c[nH]c3ncc(-c4cnn([C@H]5CC[C@H](O)CC5)c4C)cc23)c1Cl [Example 106, trans-4-(4-{3-[(1S)-1-(2,6-Dichloro-3,5-dimethoxyphenyl)ethyl]-1H-pyrrolo[2,3-b]pyridin-5-yl}-5-methyl-1H-pyrazol-1-yl)cyclohexanol] | 200 to 1000 nM | 200 to 1000 nM |
| COc1ccc(F)c(Cl)c1[C@@H](C)c1c[nH]c2ncc(-c3cn([C@H]4CC[C@H](C(N)=O)CC4)nc3C)cc12 [Example 19, trans-4-(4-{3-[(1S)-1-(2-Chloro-3-fluoro-6-methoxyphenyl)ethyl]-1H-pyrrolo[2,3-b]pyridin-5-yl}-3-methyl-1H-pyrazol-1-yl)cyclohexanecarboxamide] | ≤ 50 nM | ≤ 200 nM |
| COc1ccc(F)c(Cl)c1[C@@H](C)c1c[nH]c2ncc(-c3cnn([C@H]4CC[C@H](C(N)=O)CC4)c3C)cc12 [Example 18, trans-4-(4-{3-[(1S)-1-(2-chloro-3-fluoro-6-methoxyphenyl)ethyl]-1H-pyrrolo[2,3-b]pyridin-5-yl}-5-methyl-1H-pyrazol-1-yl)cyclohexanecarboxamide] | ≤ 50 nM | 200 to 1000 nM |
| Cc1c(-c2cnc3[nH]cc([C@H](C)c4c(Cl)ccc(F)c4Cl)c3c2)cnn1[C@H]1CC[C@H](O)CC1 [Example 67, trans-4-(4-{3-[(1S)-1-(2,6-Dichloro-3-fluorophenyl)ethyl]-1H-pyrrolo[2,3-b]pyridin-5-yl}-5-methyl-1H-pyrazol-1-yl)cyclohexanol] | 50 to 200 nM | 200 to 1000 nM |
| COc1ccc(F)c(Cl)c1[C@@H](C)c1c[nH]c2ncc(-c3c(CO)nn(C)c3C)cc12 [Example 51, (4-{3-[(1S)-1-(2-Chloro-3-fluoro-6-methoxyphenyl)ethyl]-1H-pyrrolo[2,3-b]pyridin-5-yl}-1,5-dimethyl-1H-pyrazol-3-yl)methanol] | 50 to 200 nM | > 1000 nM |
| COc1ccc(F)c(Cl)c1[C@@H](C)c1c[nH]c2ncc(-c3cnn([C@H]4CC[C@H](O)CC4)c3C)cc12 [Example 27, trans-4-(4-{3-[(1S)-1-(2-Chloro-3-fluoro-6-methoxyphenyl)ethyl]-1H-pyrrolo[2,3-b]pyridin-5-yl}-5-methyl-1H-pyrazol-1-yl)cyclohexanol] | ≤ 50 nM | 200 to 1000 nM |
| COc1ccc(F)c(Cl)c1[C@@H](C)c1c[nH]c2ncc(-c3cnn([C@H]4CC[C@H](N(C)C)CC4)c3C)cc12 [Example 53, trans-4-(4-{3-[(1S)-1-(2-Chloro-3-fluoro-6-methoxyphenyl)ethyl]-1H-pyrrolo[2,3-b]pyridin-5-yl}-5-methyl-1H-pyrazol-1-yl)-N,N-dimethylcyclohexanamine] | ≤ 50 nM | 200 to 1000 nM |
| CNC(=O)[C@H]1CC[C@H](n2ncc(-c3cnc4[nH]cc([C@H](C)c5c(OC)ccc(F)c5Cl)c4c3)c2C)CC1 [Example 17, trans-4-(4-{3-[(1S)-1-(2-Chloro-3-fluoro-6-methoxyphenyl)ethyl]-1H-pyrrolo[2,3-b]pyridin-5-yl}-5-methyl-1H-pyrazol-1-yl)-N-methyl cyclohexanecarboxamide] | ≤ 50 nM | ≤ 200 nM |
| Cc1c(-c2cnc3[nH]cc([C@H](C)c4c(OC(F)F)ccc(F)c4Cl)c3c2)cnn1[C@H]1CC[C@H](C(N)=O)CC1 [Example 76, trans-4-[4-(3-{(1S)-1-[2-Chloro-6-(difluoromethoxy)-3-fluorophenyl]ethyl}-1H-pyrrolo[2,3-b]pyridin-5-yl)-5-methyl-1H-pyrazol-1-yl]cyclohexanecarboxamide] | ≤ 50 nM | ≤ 200 nM |
| COc1nn([C@H]2CC[C@H](O)CC2)cc1-c1cnc2[nH]cc([C@H](C)c3c(OC(F)F)ccc(F)c3Cl)c2c1 [Example 100, trans-4-[4-(3-{(1S)-1-[2-chloro-6-(difluoromethoxy)-3-fluorophenyl]ethyl}-1H-pyrrolo[2,3-b]pyridin-5-yl)-3-methoxy-1H-pyrazol-1-yl]cyclohexanol] | 50 to 200 nM | ≤ 200 nM |
| Cc1nn(C[C@@H](O)CO)c(C)c1-c1cnc2[nH]cc([C@H](C)c3c(Cl)ccc(F)c3Cl)c2c1 [Example 66, (2R)-3-(4-{3-[(1S)-1-(2,6-Dichloro-3-fluorophenyl)ethyl]-1H-pyrrolo[2,3-b]pyridin-5-yl}-3,5-dimethyl-1H-pyrazol-1-yl)propane-1,2-diol] | ≤ 50 nM | 200 to 1000 nM |
| Cc1c(-c2cnc3[nH]cc(C(C#N)c4c(Cl)ccc(F)c4Cl)c3c2)cnn1[C@H]1CC[C@H](O)CC1 (stereo partly drawn) [Example 108, (2,6-Dichloro-3-fluorophenyl){5-[1-(trans-4-hydroxycyclohexyl)-5-methyl-1H-pyrazol-4-yl]-1H-pyrrolo[2,3-b]pyridin-3-yl}acetonitrile] | 200 to 1000 nM | > 1000 nM |
